According to article PMC5021965 (Scientific Reports, 2016):
Where two headings read alike, the source gives them in different places.

What was measured:
[1] = tested on: primary rat hepatocytes; test: Hepatotoxicity in primary rat hepatocytes (MTT cell viability, LDH release); conditions: for effect on atorvastatin-induced cytotoxicity: primary hepatocytes of DM rats, atorvastatin 10 μM, GSH 0.5 and 2 mM, N-Acetylcysteine 0.5 and 2 mM, gemfibrozil 10 and 50 μM, ketoconazole 2 μM
Description: (§1) Another subset of experimental rats (CON, HFD and DM rats) were used for the primary rat hepatocytes isolation. […] Primary hepatocytes were isolated from experimental rats in a modified two-step collagenase perfusion method as previously reported. An aliquot of the hepatocyte suspension (at a density of 2.5 × 10^5/ml) was seeded in collagen-precoated plates. Following 4-h incubation, the medium was replaced with 500 μl fresh cultured medium. Twenty-four hours after plating, the medium was removed and the hepatocytes were overlaid with BD matrigel (0.25 mg/ml) in feeding medium (DMEM containing […] dexamethasone and 1% ITS) and cultured for another 24 h at 37 °C in a humidified atmosphere containing 5% CO2 for following experiments.
(§2) ROS generation was simultaneously measured using DCFH-DA as a fluorescent probe.

[2] = tested on: primary rat hepatocytes; test: ROS generation in primary rat hepatocytes (DCFH-DA probe); type: cell-based; conditions: primary hepatocytes of DM rats, atorvastatin 10 μM; GSH 0.5 and 2 mM, N-Acetylcysteine 0.5 and 2 mM, gemfibrozil 10 and 50 μM, ketoconazole 2 μM
Description: as §1, §2

[3] = tested on: HepG2 cells; test: Hepatotoxicity of atorvastatin in HepG2 cells (MTT); conditions: 10 μM, 24 h
Description: (§3) The cells were cultured in DMEM containing 10% FBS (fetal bovine serum), non-essential amino acids, antibiotics (100 IU/ml penicillin and 100 μg/ml streptomycin), 2 mM L-glutamine, and 3.7 g/L NaHCO3 in a humidified incubator of 5% CO2 and 95% air atmosphere at 37 °C.

[4] = tested on: diabetic rats
Description: Briefly, experimental rats were assigned randomly to three groups: control (CON) group (n = 5), high-fat diet (HFD) group (n = 5) and diabetic (DM) group (n = 20). The CON rats were fed on normal chow while both HFD rats and DM rats were fed on high-fat diet (TROPHIC Animal Feed High-tech Co. Ltd, Nantong, China). After six-week of dietary manipulation, DM rats intraperitoneally (i.p.) received a single dose of STZ (35 mg/kg).
The diabetic rats were randomly divided into four groups (n = 5 for each group). The first group served as control group (DM).
Following last dose, rats, fasted overnight, were anesthetized with diethyl ether and blood samples were collected for measurement of blood chemistry. Then, the animals were sacrificed; the liver samples were harvested for standard histology, hepatic biochemical measurement and Western blot.

[5] = tested on: HepG2 cells; test: Atorvastatin metabolism in HepG2 cells (formation of ortho-hydroxy atorvastatin); conditions: HepG2, ketoconazole 2 and 10 μM; atorvastatin 30 μM, 30 min
Description: as §3

[6] = tested on: hepatic SLCO1B1; test: Activity and expression of hepatic SLCO1B1 in phenobarbital-treated rats; type: in vivo, rat; conditions: PB rats, phenobarbital i.p. 80 mg/kg
[7] = phenobarbital i.p. 80 mg/kg
Description: Blood samples were collected under light ether anesthesia via the oculi chorioideae vein at 5, 10, 20, 30, 45, 60, 120, 240, 360, and 720 min after first dose and last dose. After 3 or 4 samplings, the appropriate amount of normal saline was administered to the rats via the tail vein to compensate for blood loss. The blood collected was mixed properly with the anticoagulant and centrifuged at 4000 rpm for 10 min. The plasma was separated and stored at −80 °C until drug analysis.
The pharmacokinetic parameters were calculated using noncompartmental analysis on Phenix WinNonlin 6.1 (Pharsight, St. Louis, MO). All values were expressed as mean ± S.D. Results were analyzed using one-way analysis of variance (ANOVA) followed by Tukey’s post hoc test. Differences among groups were determined by nonparametric test when necessary. Statistical significance was assumed at P < 0.05.

[8] = tested on: normal rats and phenobarbital pre-treated rats; test: Atorvastatin-induced hepatotoxicity in normal rats and rats pre-treated with phenobarbital; conditions: phenobarbital i.p. 80 mg/kg with atorvastatin 10, 20, 40 mg/kg for 10 days
Description: For normal rats, they were randomly divided into vehicle (CON) rats, low-dose treatment (AL) rats, middle-dose treatment (AM) rats and high-dose treatment (AH) rats (n = 5 for each group). CON rats orally received daily dose of vehicle. […] The serum biochemical parameters, liver weight and ROS levels were measured as described above.

[9] = tested on: hepatic Cyp3a; test: Activity and expression of hepatic Cyp3a in phenobarbital-treated rats; conditions: PB rats, phenobarbital i.p. 80 mg/kg
Description: as §1
Repaglinide (20 μM) and midazolam (10 μM) were used as probe substrates to identify the activities of SLCO1B1 and Cyp3a, respectively.
Total rat liver extract was prepared in RIPA lysis buffer containing 1 mM PMSF to measure protein levels of Cyp3a and SLCO1B1. Protein concentrations were measured by the BCA protein assay kit. 50 μg proteins were separated on a SDS-polyacrylamide gel electrophoresis and transferred onto polyvinylidene fluoride membranes (Millipore Corporation, Billerica, MA, USA).

[10] = DM-AL: diabetic rats, 10 mg/kg, 10 days
[11] = DM-AM: diabetic rats, 20 mg/kg, 10 days
[12] = diabetic rats, 10 and 20 mg/kg, 10 days
[13] = serum, DM-AL: diabetic rats, 10 mg/kg, 10 days
[14] = serum, DM-AM: 20 mg/kg, 10 days
[15] = serum, DM-AM: diabetic rats, 20 mg/kg, 10 days

Structure (SMILES): N[C@@H](CCC(=O)N[C@@H](CS)C(=O)NCC(=O)O)C(=O)O [GSH, Glutathione]
- effect on atorvastatin-induced cytotoxicity [1]: concentration-dependently reversed
- effect on atorvastatin-induced production of ROS [2]: concentration-dependently reversed

Structure (SMILES): CC(=O)N[C@@H](CS)C(=O)O [N-Acetylcysteine]
- effect on atorvastatin-induced cytotoxicity [1]: concentration-dependently reversed
- effect on atorvastatin-induced production of ROS [2]: concentration-dependently reversed

Structure (SMILES): CC(C)c1c(C(=O)Nc2ccccc2)c(-c2ccccc2)c(-c2ccc(F)cc2)n1CC[C@@H](O)C[C@@H](O)CC(=O)O [atorvastatin, Atorvastatin calcium]
- cell viability [3]: little affected
- cytotoxicity in primary hepatocytes of PB rats ([1]; phenobarbital pre-treated rats, 96 h): severe cytotoxicity
- Body weight ([4]; DM-AL: diabetic rats, 10 mg/kg atorvastatin orally once daily for 10 days): 269.3 ± 5.3 g
- FBG [4, 10]: 18.38 ± 1.75 mM
- FINS [4, 10]: 32.65 ± 2.15 mIU/L
- HOMA-IR [4, 10]: 27.56 ± 2.01
- Liver weight (% of body weight) [4, 10]: 6.94 ± 0.95 % of body weight
- Spleen weight (% of body weight) [4, 10]: 0.264 ± 0.027 % of body weight
- liver weight (% of body weight) compared with DM rats ([4]; DM-AM: 20 mg/kg, 10 days): almost doubled
- Body weight ([4]; DM-AM: diabetic rats, 20 mg/kg atorvastatin orally once daily for 10 days): 250.8 ± 22.4 g
- FBG [4, 11]: 18.34 ± 1.60 mM
- FINS [4, 11]: 32.51 ± 4.45 mIU/L
- HOMA-IR [4, 11]: 26.92 ± 2.52
- Liver weight (% of body weight) [4, 11]: 10.60 ± 2.25 % of body weight
- Spleen weight (% of body weight) [4, 11]: 0.392 ± 0.033 % of body weight
- MDA levels in liver [4, 12]: increased
- SOD, CAT, GSH-pX and SDH activities in liver [4, 12]: dose-dependently lowered
- histopathological damage scores ([4]; liver, DM-AL (10 mg/kg) and DM-AM (20 mg/kg) rats): Higher
- TC [4, 13]: 4.02 ± 0.71 mM
- TG [4, 13]: 5.40 ± 0.50 mM
- AKP level compared with DM rats [4, 14]: approximately doubled
- ALT level compared with DM rats [4, 14]: approximately doubled
- AST level compared with DM rats [4, 14]: approximately doubled
- DBIL level compared with DM rats [4, 14]: almost tripled
- TBIL level compared with DM rats [4, 14]: almost tripled
- level of Alb [4, 14]: significant decrease
- TC [4, 15]: 3.42 ± 0.52 mM
- TG [4, 15]: 3.75 ± 0.70 mM

Structure (SMILES): Cc1ccc(C)c(OCCCC(C)(C)C(=O)O)c1 [gemfibrozil]
- effect on atorvastatin-induced cytotoxicity [1]: concentration-dependently reversed
- effect on atorvastatin-induced production of ROS [2]: concentration-dependently reversed

Structure (SMILES): CC(=O)N1CCN(c2ccc(OCC3COC(Cn4ccnc4)(c4ccc(Cl)cc4Cl)O3)cc2)CC1 (stereo not drawn) [ketoconazole, Ketoconazole]
- effect of co-incubation on atorvastatin metabolism [5]: concentration-dependently inhibited

Structure (SMILES): CCC1(c2ccccc2)C(=O)NC(=O)NC1=O [phenobarbital, Phenobarbital]
- activities and expressions of hepatic SLCO1B1 [6]: significantly increased
- effect on plasma exposure of atorvastatin in rats [7]: decreased
- effect of co-administration on atorvastatin hepatotoxicity [8]: markedly potentiated
- activities and expressions of hepatic Cyp3a [9]: significantly increased
